Patent publication US8093380B2, “Compounds with the bicyclo[4.2.1]nonane system for the treatment of Flaviviridae infections” (Pharmasset, Inc., priority 2002, dated 2012)
Structures can show the parent of a compound that is named as a salt.

Key:
[1] = Hematology and blood chemistry in treated chimpanzees; type: in vivo
Description: Hematology and blood chemistry report. The day 0 and day 14 samples were analyzed for hematological and blood chemistry parameters. Essentially, no changes in the baseline and after treatment samples were observed.

[2] = Toxicity in Swiss outbred mice, IP for 6 consecutive days; type: in vivo; conditions: up to 100 mg/kg
[3] = test system: human cell lines; assay: Toxicity in several human cell lines; type: cell-based
[4] = test system: HCV; assay: 14-day oral treatment of chronically HCV-infected chimpanzees, serum HCV viral load by real-time RT-PCR; type: in vivo
Description: Based on those toxicity data, a 14-day treatment (oral, QD at 5 mg/kg/day) of chronically HCV-infected chimpanzees was conducted. Viral RNA was extracted from the chronically infected chimpanzees serum samples in quadruplicate and the viral RNA pellets were dissolved in RNAse-free water. Subsequently, these RNA samples were amplified by real-time RT-PCR (Applied Biosystems, Foster City, Calif.) for the presence and quantity of the HCV nucleic acids. Primers and probes for HCV were designed using Primer Express (Applied Biosystems). Further details on the methodology will be published (Stuyver et al., 2002; manuscript submitted to Antimicrob. Agents Chemother.).
The results are expressed relative to the viral load in the pretreatment sample. Calculation of the viral load for each sample was based on 4 independent measurements of threshold RT-PCR cycles (Ct values). Mean±SD were calculated for each day's sample. The latter were used to express the observed viral load changes.
Two chimpanzees [Joseph (5.14 log10 IU/ml HCV) and Heppie (5.69 log10 IU/ml HCV)] were treated orally for 14 days with 5 mg/kg/day. The viral load changes that were observed are summarized below (FIG. 1): • 1. […] The viral load remained suppressed with a mean of 0.43 log10 IU/ml up to day 14.

[5] = test system: HCV replicon; assay: HCV replicon system in Huh7 cells (real-time RT-PCR of replicon RNA); type: cell-based; conditions: for ΔCt HCV at 100 μM / EC50: Huh7 replicon cells; for ΔCt HCV at 100 μM: ΔCt of 3.3 = 1-log reduction in replicon production; for EC50: calculated from ΔCt values of dilution series
Description: The HCV replicon system in Huh7 cells.
Huh7 cells harboring the HCV replicon were cultivated in DMEM medium (high glucose, no pyruvate), supplemented with 10% fetal bovine serum, 1× non-essential amino acids, Pen-Strep-Glu (100 units/liter, 100 microgram/liter, and 2.92 mg/liter, respectively), and G418 (500 to 1000 microgram/milliliter). Antiviral screening assays were also done in the same medium without G418 as follows. To keep the cells in the logarithmic growth phase, cells were seeded in 96-well plates at low density (for example, 1000 cells per well). The test compound was then added immediately after seeding the cells, and they were incubated for 3 to 7 days at 37° C. in an incubator. The medium was then removed, and the cells were prepared for total RNA extraction (replicon RNA+host RNA). Replicon RNA was then amplified in a real-time RT-PCR (Q-RT-PCR) protocol, and quantified.
In such experiments, a way to express the antiviral effectiveness of a compound is to subtract the average threshold RT-PCR cycle of the negative control (Ctnegative) from the threshold RT-PCR cycle of the test compound (Cttestcompound). This value is called ΔCt (ΔCt=Cttestcompound−Ctnegative). A ΔCt value of 3.3 represents a 1-log reduction in replicon production.
The ΔCt values for each concentration allow the calculation of the 50% effective concentration (EC50).
Compounds were tested for inhibition of HCV RNA replication using the above assay.

[6] = Oral and IV administration to rhesus monkeys; type: in vivo; conditions: 20 mg/kg
[7] = test system: HCV; conditions: ribavirin alone; cited from earlier work

| Compound | ΔCt HCV at 100 μM [5] | EC50 ([5]; Hepatitis C virus, Huh-7) | other results |
| --- | --- | --- | --- |
| O=c1ccc2nnn3c2n1[C@@H]1O[C@H](C3)C(O)C1O (stereo partly drawn) [15 (Y = H, Z = CH), 9,5′-Cyclo-3-(β-D-ribofuranosyl)-1-deaza-8-azapurine-2-one] | 4.48 | 20 µM | changes in hematological and blood chemistry parameters ([1]; day 0 versus day 14; oral 5 mg/kg/day; Z=CH), 5 mg/kg/day): No change; hematological and blood chemistry parameters relative to normal range ([1]; throughout the study): remained in the normal range; toxicity [2]: no toxicity was apparent; death or significant weight loss ([2]; 28 day monitoring): None of the mice died or lost significant weight; toxicity in several human cell lines [3]: practically no toxicity; reduction in viral load ([4]; day 4, 5 mg/kg/day QD, in words): significant reduction; maximal drop in HCV viral load ([4]; day 4, chimpanzee Heppie, oral 5 mg/kg/day QD): 0.8 log10 IU/ml; maximal drop in HCV viral load ([4]; day 4, chimpanzee Joseph, oral 5 mg/kg/day QD): 0.5 log10 IU/ml; maximal drop in HCV viral load, mean for both animals ([4]; day 4, mean of both chimpanzees, oral 5 mg/kg/day QD): 0.67 log10 IU/ml; viral load changes ([4]; up to 24 hr after administration of the first dose, oral 5 mg/kg/day): No viral load changes were observed; viral load suppression, mean ([4]; up to day 14, oral 5 mg/kg/day QD): 0.43 log10 IU/ml; in vitro antiviral activity against HCV ([5]; in words): demonstrated in vitro antiviral activity against HCV; untoward effects ([6]; IV administration): Neither oral administration nor IV administration to rhesus monkeys at 20 mg/kg caused any untoward effects; untoward effects ([6]; oral administration): Neither oral administration nor IV administration to rhesus monkeys at 20 mg/kg caused any untoward effects |
| O=c1ncc2nnn3c2n1[C@@H]1O[C@H](C3)C(O)C1O (stereo partly shown) [15 (Y = H, Z = N)] | 3.6 | < 10 µM |  |
| O=c1[nH]c(=O)n2c3c1nnn3CC1OC2C(O)C1O [15 (Y = OH, Z = N), 9,5′Cyclo-3-(β-D-ribofuranosyl)-8-azaxanthine] | 6.3 |  | EC50 [5]: < 10 µM |
| O=c1[nH]c(=S)c2nnn3c2n1[C@@H]1O[C@H](C3)C(O)C1O (stereo partly shown) [15 (Y = SH, Z = N)] | 3.61 | < 6 µM |  |
| O=c1c(Br)cc2nnn3c2n1[C@@H]1O[C@H](C3)C(O)C1O (stereo partly drawn) [71 (X = Br), 3,5′-Cyclo-6-bromo-4-(β-D-ribofuranosyl)-vic-triazolo[4,5-b]pyridin-5-one] | 5.9 | < 1 µM |  |
| O=c1c(Cl)cc2nnn3c2n1[C@@H]1O[C@H](C3)C(O)C1O (stereo partly drawn) [71 (X = Cl), 3,5% Cyclo-6-chloro-4-(β-D-ribofuranosyl)-vic-triazolo[4,5-b]pyridin-5-one] | 6.0 | < 0.7 µM |  |
| CNc1nc(=O)n2c3c1nnn3C[C@H]1O[C@@H]2C(O)C1O (stereo partly drawn) [72 (R = H, R′ = Me), 3,5′-Cyclo-7-methylamino-4-(β-D-ribofuranosyl)-vic-triazolo[4,5-b]pyridin-5-one] | 6.6 | < 1 µM |  |
| Nc1cc(=O)n2c3c1nnn3C[C@H]1O[C@@H]2C(O)C1O (stereo partly drawn) [72 (R = R′ = H), 7-Amino-3,5′-cyclo-4-(β-D-ribofuranosyl)-vic-triazolo[4,5-b]pyridin-5-one] | 5.7 | 4.5 µM |  |
| CC1(C)OC2C(O1)[C@H]1Cn3nnc4c(=S)[nH]c(=O)n(c43)[C@@H]2O1 (stereo partly shown) [73 (Y = SH)] | 4.1 | 25 µM |  |
| C/N=c1/[nH]c(=O)n2c3c1nnn3C[C@H]1O[C@@H]2C(O)C1O (stereo partly drawn) [75 (R = Me, R′ = H), 9,5′-Cyclo-3-(β-D-ribofuranosyl)-6-methylamino-8-azaxanthine] | 6.4 | < 6 µM |  |
| CO/N=c1/[nH]c(=O)n2c3c1nnn3C[C@H]1O[C@@H]2C(O)C1O (stereo partly drawn) [75 (R = OMe, R′ = H), 9,5′-Cyclo-3-(β-D-ribofuranosyl)-6-methoxylamino-8-azaxanthine] | 6.5 | < 5 µM |  |
| Nc1nc(=O)n2c3c1nnn3C[C@H]1O[C@@H]2C(O)C1O (stereo partly drawn) [75 (R = R′ = H), 9,5′-Cyclo-3-(β-D-ribofuranosyl)-6-amino-8-azapurine-2-one hydrochloride] | 5.3 | 0.7 µM |  |
| CN(C)c1nc(=O)n2c3c1nnn3C[C@H]1O[C@@H]2C(O)C1O (stereo partly drawn) [75 (R = R′ = Me), 9,5′-Cyclo-3-(β-D-ribofuranosyl)-6-dimethylamino-8-azaxanthine] | 2.4 |  |  |
| N#CCn1c(=O)c2nnn3c2n(c1=O)[C@@H]1O[C@H](C3)C(O)C1O (stereo partly drawn) [77 (R = CH2CN), 1-Cyanomethyl-9,5′-cyclo-3-(β-D-ribofuranosyl)-8-azaxanthine] | 4.7 | < 6 µM |  |
| Cn1c(=O)c2nnn3c2n(c1=O)[C@@H]1O[C@H](C3)C(O)C1O (stereo partly drawn) [77 (R = CH3), 9,5′-Cyclo-1-methyl-3-(β-D-ribofuranosyl)-8-azaxanthine] | 5.9 | 0.4 µM |  |
| O=c1ccc2nnn3c2n1[C@@H]1O[C@H](C3)C2OC(=S)OC21 (stereo partly shown) [82 (Y = H, Z = CH)] | 2.6 |  |  |
| O=c1[nH]c(=O)n2c3c1nnn3C[C@H]1O[C@@H]2C2OC(=S)OC21 (stereo partly drawn) [82 (Y = OH, Z = N), 9,5′-Cyclo-3-(2′,3′O-thiocarbonyl-β-D-ribofuranosyl)-8-azaxanthine] | 4.7 | 12 µM |  |
| O=c1ccc2nnn3c2n1[C@H]1CC(O)[C@@H](C3)O1 (stereo partly shown) [83 (Y = H, Z = CH)] | 5.1 | < 6 µM |  |
| O=c1[nH]c(=O)n2c3c1nnn3C[C@H]1O[C@@H]2C(O)C1O (stereo partly drawn) [83 (Y = OH, Z = N), 9,5% Cyclo-3-(2′-deoxy-β-D-erythropentofuranosyl)-8-azaxanthine] | 2.1 | 60 µM |  |
| Cl.Nc1nc(=O)n2c3c1ncn3C[C@H]1O[C@@H]2C(O)C1O (stereo partly drawn) [Compound 27, 6-Amino-5′,9-cyclo-3-(β-D-ribofuranosyl)-2-oxo-purine HCl salt] | 6.6 | < 3 µM |  |
| O=c1[nH]c(=O)n2c3c1ncn3C[C@H]1O[C@@H]2C(O)C1O (stereo partly drawn) [Compound 35, 5′,9-Cyclo-3-(β-D-ribofuranosyl)xanthine] | 6.0 | 4 µM |  |
| O=c1[nH]c(=O)n2c3c1nnn3C[C@H]1O[C@@H]2C(O)C1O (stereo partly shown) [Compound 65, 9,5′-Cyclo-carba-8-azaxanthosine] | 2.4 |  |  |
| OC1C(O)[C@H]2Cn3nnc4ccc(=S)n(c43)[C@@H]1O2 (stereo partly drawn) [Compound 70, 3,5% Cyclo-4-(β-D-ribofuranosyl)-vic-triazolo[4,5-b]pyridin-5-thione] | 7.0 | 1 µM |  |
| NC(=O)c1ncn([C@@H]2O[C@H](CO)[C@@H](O)[C@H]2O)n1 [Ribavirin, 1-β-D-ribofuranosyl-1H-1,2,4-triazole-3-carboxamide] |  |  | patients in whom serum amino transferase levels are reduced to normal [7]: 40% |
